In patent US5716958A, “Amino acid derivative having anti-CCK activity” (Tobishi Pharmaceutical Co., Ltd., priority 1994, dated 1998):
Where two headings read alike, the source gives them in different places.

Tests used:
[1] = test system: extracted guinea pig ileum; experiment: Anti-CCK action in extracted guinea pig ileum (inhibition of CCK-8-induced contraction, Magnus tube); parameters: species or system guinea pig (Hartley strain, male); conditions: Cavia porcellus; contraction by 1×10^-8 M CCK-8, test compound added 5 minutes before; extracted ileum, 37° C; read-out: Active IC50
Method: Anti-cholecystokinin (CCK) Action in Extracted Guinea Pig Ileum After sacrificing a male guinea pig (Hartley strain) by striking and exsanguination, a piece of extracted ileum was suspended from a Magnus tube, while applying tension of 0.5 g, containing 30 ml of Tyrode's solution (NaCl 136.9 mM, KCl 2.68 mM, CaCl2 1.8 mM, MgCl2 1.05 mM, NaH2 PO4 0.42 mM, NaHCO3 11.9 mM and glucose 5.55 mM) and ventilated with mixed O2 gas containing 5% CO2 at 37° C. Changes in contraction were recorded on smoked paper for isotonicity via a bevel. The piece of ileum was allowed to stand undisturbed for 30 minutes and then contracted by addition 1×10^-8 M CCK-8. After washing, this was repeated several times. After the contraction by CCK-8 had stabilized, the test compound was added. Contraction resulting from addition of 1×10^-8 M CCK was then measured 5 minutes later. The contraction caused by CCK-8 and the contraction caused by CCK-8 in the presence of the test compound at varying concentrations were compared, and the resulting IC50 values (concentration of test substance at which contraction caused by CCK-8 is inhibited by 50%) are shown in Table 2. The compound numbers shown in Table 2 indicate the target compounds according to the numbers of the embodiments.

CCK-A = target: T1, CCK-A (Rattus norvegicus, UniProt P30551); experiment: Peripheral receptor (CCK-A) binding experiment, [^3 H]-CCK-8 binding inhibition; conditions: for CCK-B/CCK-A: ratio of IC50 values CCK-B/CCK-A (selectivity for CCK-A), 60 min
T1 construct: CCK-A receptors prepared from the cell membranes of rat pancreas; from tissue; host or cells: rat pancreas membranes (male rats, Japan Laboratory Animals)
T1 sequence (P30551 1-444): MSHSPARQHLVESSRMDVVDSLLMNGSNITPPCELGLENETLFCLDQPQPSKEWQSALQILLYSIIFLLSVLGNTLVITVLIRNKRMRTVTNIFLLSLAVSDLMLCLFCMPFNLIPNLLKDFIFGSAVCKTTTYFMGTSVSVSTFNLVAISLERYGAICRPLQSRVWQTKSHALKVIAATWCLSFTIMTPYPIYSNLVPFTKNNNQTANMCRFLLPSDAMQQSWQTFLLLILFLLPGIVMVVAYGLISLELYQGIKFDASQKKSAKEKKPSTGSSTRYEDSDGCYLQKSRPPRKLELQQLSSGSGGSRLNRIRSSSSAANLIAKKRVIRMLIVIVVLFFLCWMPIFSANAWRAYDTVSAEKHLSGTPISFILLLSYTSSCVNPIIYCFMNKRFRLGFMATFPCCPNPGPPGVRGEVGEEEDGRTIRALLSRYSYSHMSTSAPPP
Method: (§1) Peripheral Receptor (CCK-A) and Central Receptor (CCK-B) Binding Experiment
(§2) The pancreas and cerebrum of male rats (Japan Laboratory Animals), which were sacrificed by decapitation and having body weights of 250-300 g, were extracted and immersed in cold Hepes buffer. After suspending these tissues using a Potter homogenizer, the suspension was centrifuged for 10 minutes at 48,000×g. The resulting residue was again suspended by addition of cold Hepes buffer and centrifuged for 10 minutes at 48,000×g. The resulting residue was transferred to cold incubation buffer.
(§3) A 1 ml aliquot of the homogenate was incubated for 60 minutes at 25° C. in the presence of 0.2 nM [^3 H]-CCK-8 and the test compound, in the presence of vehicle only (for measurement of 100% binding), or in the presence of 1 μM cold CCK-8 (for measurement of non-specific binding). Next, the reaction solution was promptly suction filtered using a Whatman glass GF/B filter immersed in Hepes buffer followed by washing the filter with cold Hepes buffer. Next, the glass filter was placed in Aquasol-2 followed by assay of radioactivity with a liquid scintillation counter.
(§4) The compound numbers shown in Table 3 indicate the target compounds according to the number of the embodiment.

CCK-B = target: T2, CCK-B (Rattus norvegicus, UniProt P30553); experiment: Central receptor (CCK-B) binding experiment, [^3 H]-CCK-8 binding inhibition; conditions: rat cerebrum homogenate, 0.2 nM [^3 H]-CCK-8, 60 minutes at 25° C
T2 construct: CCK-B receptors originating in the cell membrane of rat brain cells; from tissue; host or cells: rat cerebrum membranes (male rats, Japan Laboratory Animals)
T2 sequence (P30553 1-452): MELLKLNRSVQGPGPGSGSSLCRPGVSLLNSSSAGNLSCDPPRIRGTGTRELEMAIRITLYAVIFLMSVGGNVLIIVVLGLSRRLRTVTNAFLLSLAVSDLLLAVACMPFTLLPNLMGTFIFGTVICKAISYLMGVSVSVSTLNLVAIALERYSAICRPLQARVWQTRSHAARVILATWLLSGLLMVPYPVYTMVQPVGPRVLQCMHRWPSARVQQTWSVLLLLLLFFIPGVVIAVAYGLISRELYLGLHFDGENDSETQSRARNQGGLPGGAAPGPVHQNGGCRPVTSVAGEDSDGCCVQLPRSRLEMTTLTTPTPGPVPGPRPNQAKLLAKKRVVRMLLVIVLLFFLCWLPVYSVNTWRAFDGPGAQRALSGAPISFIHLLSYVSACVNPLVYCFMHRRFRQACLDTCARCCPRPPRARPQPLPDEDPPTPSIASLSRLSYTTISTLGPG
Method: as §1, §2, §3, §4

[2] = rat pancreas homogenate, 0.2 nM [^3 H]-CCK-8, 60 minutes at 25° C, read-out: CCK-A IC50
[3] = rat pancreas cell membranes, read-out: activity in binding experiment on CCK-A receptors prepared from the cell membranes of rat pancreas

Structure (SMILES): CCCCCN(CCCOC)C(=O)C(CCC(=O)O)NC(=O)c1ccc(Cl)c(Cl)c1 (stereo not drawn) [CR1505, Loxiglumide, reference compound]
- IC50 [1]: 3.3 µM
- IC50 (CCK-A; [2]): 1.5 µM
- CCK-B/CCK-A (CCK-A): 16
- IC50 (CCK-B): 24 µM

Structure (SMILES): O=C(N[C@@H](CSc1ncccc1C(=O)O)C(=O)N1CCN(C(c2ccccc2)c2ccccc2)CC1)c1cc2ccccc2[nH]1 [Compound 1-6, (R)-1-[3-(3-carboxypyridin-2-yl)thio-2-(indol-2-yl)carbonylamino]propionyl-4-diphenylmethylpiperazine]
- IC50 [1]: 0.013 µM
- IC50 (CCK-A; [3]): 0.0051 µM
- IC50 (CCK-A; [2]): 0.0051 µM
- CCK-B/CCK-A (CCK-A): 2745
- IC50 (CCK-B): 14 µM

Structure (SMILES): O=C(N[C@@H](CSc1ncccc1C(=O)O)C(=O)N1CCC(C(c2ccccc2)c2ccccc2)CC1)c1cc2ccccc2[nH]1 [Compound 2-6, (R)-4-diphenylmethyl-1-[3-(3-carboxypyridin-2-yl)thio-2-(indol-2-yl)carbonylamino)propionylpiperidine]
- IC50 [1]: 0.06 µM
- IC50 (CCK-A; [3]): 0.0043 µM
- IC50 (CCK-A; [2]): 0.0043 µM
- CCK-B/CCK-A (CCK-A): 13256
- IC50 (CCK-B): 57 µM

Structure (SMILES): COc1ccc2[nH]c(C(=O)N[C@@H](CSc3ncccc3C(=O)O)C(=O)N3CCN(C(c4ccccc4)c4ccccc4)CC3)cc2c1 [Compound 6-2, (R)-1-[3-(3-carboxypyridin-2-yl)thio-2-(5-methoxyindol-2-yl)carbonylamino]propionyl-4-diphenylmethylpiperazine]
- IC50 [1]: 0.052 µM
- IC50 (CCK-A; [2]): 0.043 µM
- CCK-B/CCK-A (CCK-A): 419
- IC50 (CCK-B): 18 µM

Structure (SMILES): COc1ccc(C(c2ccc(OC)cc2)N2CCN(C(=O)[C@H](CSc3ncccc3C(=O)O)NC(=O)c3cc4ccccc4[nH]3)CC2)cc1 [Compound 7-4, (R)-4-bis(4-methoxyphenyl)methyl-1-[3-(3-carboxypyridin-2-yl)thio-2-(indol-2-yl)carbonylamino]propionylpiperazine]
- IC50 (CCK-A; [2]): 0.8 µM
- CCK-B/CCK-A (CCK-A): 76
- IC50 (CCK-B): 61 µM

Structure (SMILES): O=C(N[C@@H](CSc1ncccc1C(=O)O)C(=O)N1CCN(C(c2ccccn2)c2ccccn2)CC1)c1cc2ccccc2[nH]1 [Compound 8-5, (R)-4-bis(2-pyridyl)methyl-1-[3-(3-carboxypyridin-2-yl)thio-2-(indol-2-yl)carbonylamino]propionylpiperazine]
- IC50 [1]: 0.35 µM
- IC50 (CCK-A; [2]): 0.05 µM
- CCK-B/CCK-A (CCK-A): 1140
- IC50 (CCK-B): 57 µM

Structure (SMILES): O=C(N[C@@H](CSc1ccccc1C(=O)O)C(=O)N1CCN(C(c2ccccc2)c2ccccc2)CC1)c1cc2ccccc2[nH]1 [Compound 9-3, (R)-1-[3-(2-carboxyphenyl)thio-2-(indol-2-yl)carbonylamino]propionyl-4-diphenylmethylpiperazine]
- IC50 (CCK-A; [2]): 0.21 µM
- CCK-B/CCK-A (CCK-A): 29
- IC50 (CCK-B): 6 µM

Structure (SMILES): O=C(N[C@@H](CSc1ncccc1C(=O)O)C(=O)N1CCN(C(c2ccc(F)cc2)c2ccc(F)cc2)CC1)c1cc2ccccc2[nH]1 [Compound 10-4, (R)-4-bis(4-fluorophenyl)methyl-1-[3-(3-carboxypyridin-2-yl)thio-2-(indol-2-yl)carbonylamino]propionylpiperazine]
- IC50 [1]: 0.048 µM
- IC50 (CCK-A; [3]): 0.006 µM
- IC50 (CCK-A; [2]): 0.006 µM
- CCK-B/CCK-A (CCK-A): 6000
- IC50 (CCK-B): 36 µM

Structure (SMILES): O=C(N[C@@H](CSc1ncccc1C(=O)O)C(=O)N1CCN(C2c3ccccc3CCc3ccccc32)CC1)c1cc2ccccc2[nH]1 [Compound 19-5, (R)-1-[3-(3-carboxypyridin-2-yl)thio-2-(indol-2-yl)carbonylamino]propionyl-4-(10,11-dihydro-5H-dibenzo[a,d]cyclohepten-5-yl)piperazine]
- IC50 (CCK-A; [3]): 0.009 µM
- IC50 (CCK-A; [2]): 0.009 µM
- CCK-B/CCK-A (CCK-A): 7111
- IC50 (CCK-B): 64 µM

Structure (SMILES): O=C(N[C@@H](CSc1ncccc1C(=O)O)C(=O)N1CCC(C(c2ccccc2)c2ccccc2)CC1)c1cc2cc(Cl)ccc2[nH]1 [Compound 20-2, (R)-1-[3-(3-carboxypyridin-2-yl)thio-2-(5-chloroindol-2-yl)carbonylamino]propionyl-4-diphenylmethylpiperidine]
- IC50 (CCK-A; [2]): 0.06 µM
- CCK-B/CCK-A (CCK-A): > 16667
- IC50 (CCK-B): > 1000 µM

Structure (SMILES): COc1ccc2[nH]c(C(=O)N[C@@H](CSc3ncccc3C(=O)O)C(=O)N3CCC(C(c4ccccc4)c4ccccc4)CC3)cc2c1 [Compound 21-2, (R)-1-[3-(3-carboxypyridin-2-yl)thio-2-(5-methoxyindol-2-yl)carbonylamino]propionyl-4-diphenylmethylpiperidine]
- IC50 (CCK-A; [2]): 0.013 µM
- CCK-B/CCK-A (CCK-A): 130770
- IC50 (CCK-B): 1700 µM

Structure (SMILES): O=C(N[C@@H](CCCn1nnc(C(=O)O)c1C(=O)O)C(=O)N1CCN(C(c2ccccc2)c2ccccc2)CC1)c1cc2ccccc2[nH]1 [Compound 23-6, (S)-1-[5-(4,5-dicarboxy-1,2,3-triazol-1-yl)-2-(indol-2-yl)carbonylamino]valeryl-4-diphenylmethylpiperazine]
- IC50 (CCK-A; [2]): 0.14 µM
- CCK-B/CCK-A (CCK-A): 179
- IC50 (CCK-B): 25 µM

Structure (SMILES): O=C(N[C@@H](CCSc1ncccc1C(=O)O)C(=O)N1CCN(C(c2ccccc2)c2ccccc2)CC1)c1cc2ccccc2[nH]1 [Compound 25-7, (S)-1-[4-(3-carboxypyridin-2-yl)thio-2-(indol-2-yl)carbonylamino]butyryl-4-diphenylmethylpiperazine]
- IC50 (CCK-A; [2]): 0.21 µM
- CCK-B/CCK-A (CCK-A): 57
- IC50 (CCK-B): 12 µM

Structure (SMILES): O=C(N[C@@H](CCCn1nncc1C(=O)O)C(=O)N1CCN(C(c2ccccc2)c2ccccc2)CC1)c1cc2ccccc2[nH]1 [Compound 28-3, (S)-1-[5-(5-carboxy-1,2,3-triazol-1-yl)-2-(indol-2-yl)carbonylamino]valeryl-4-diphenylmethylpiperazine]
- IC50 (CCK-A; [2]): 0.07 µM
- CCK-B/CCK-A (CCK-A): 43
- IC50 (CCK-B): 3 µM

Structure (SMILES): O=C(O)c1cn(CCC[C@H](NC(=O)c2cc3ccccc3[nH]2)C(=O)N2CCN(C(c3ccccc3)c3ccccc3)CC2)nn1 [Compound 29-2, (S)-1-[5-(4-carboxy-1,2,3-triazol-1-yl)-2-(indol-2-yl)carboxyamino]valeryl-4-diphenylmethylpiperazine]
- IC50 (CCK-A; [2]): 1.5 µM
- CCK-B/CCK-A (CCK-A): 17
- IC50 (CCK-B): 26 µM

Structure (SMILES): O=C(N[C@@H](Cn1nnc(C(=O)O)c1C(=O)O)C(=O)N1CCN(C(c2ccccc2)c2ccccc2)CC1)c1cc2ccccc2[nH]1 [Compound 31-3, (S)-1-[3-(4,5-dicarboxy-1,2,3-triazol-1-yl)-2-(indol-2-yl)carbonylamino]propionyl-4-diphenylmethylpiperazine]
- IC50 [1]: 0.032 µM

Structure (SMILES): O=C(N[C@@H](Cn1nncc1C(=O)O)C(=O)N1CCN(C(c2ccccc2)c2ccccc2)CC1)c1cc2ccccc2[nH]1 [Compound 32-2, (S)-4-diphenylmethyl-1-[3-(5-carboxy-1,2,3-triazol-1-yl)-2-(indol-2-yl)carbonylamino]propionylpiperazine]
- IC50 [1]: 0.036 µM
